The target in test [1] is Diacylglycerol kinase zeta (Homo sapiens, UniProt Q13574). The test can be described thus: Biochemical DGK IC50 Assay. The procedure: (§1) Enzymatic reactions of DGKζ, DGKα and DGKδ were performed using ADP-Glo assay with lipid micelle substrate. […] Full length DGKα (D21-10BG, SignalChem) and full length DGKδ (D23-10G, SignalChem) were purchased. […] The resulted product was resuspended in buffer containing 25 mM HEPES pH 7.0, 0.5 mM EDTA and 160 mM Octyl β-D glucopyranoside by vigorous mixing and ultrasonic (IID, Scientz).Final concentration in reaction Enzyme Enzyme (nM) ATP (μM) DAG (μM)DGKα 7.5 140 80DGKδ 10 140 80DGKζ 0.5 140 80The inhibition activities testing for the compound disclosed herein were carried out at room temperature in assay buffer containing 50 mM HEPES, 10 mM MgCl2, 0.01% BSA, 0.1 mM Na3VO4, 0.005% Tween-20 and 0.01 mM CaCl2. […] 3 μL 2× enzyme solution was added to wells. […] After 1 hour reaction, 5 μL ADP-Glo reagent (Promga V9101) was added and incubated for 40 minutes. 10 μL Kinase Detection reagent was added and incubated for 30 minutes. Luminescence was measured on a microplate reader (PHERAstar FSX, BMG labtech). The IC50s are calculated based on inhibition of enzyme activity in the presence of increasing concentrations of compounds.

Test [2] addresses Diacylglycerol kinase alpha (Homo sapiens, UniProt P23743). In words: Biochemical DGK IC50 Assay. The procedure: as §1

The values below come from BindingDB's records for patent US20250353858 (BEONE MEDICINES I GMBH, 2025).

Broadly, the IC50 is the concentration needed to halve the response being measured. A high value points to weaker potency.

SMILES strings stand for the structures.

Sequence of Diacylglycerol kinase alpha (P23743 whole entry): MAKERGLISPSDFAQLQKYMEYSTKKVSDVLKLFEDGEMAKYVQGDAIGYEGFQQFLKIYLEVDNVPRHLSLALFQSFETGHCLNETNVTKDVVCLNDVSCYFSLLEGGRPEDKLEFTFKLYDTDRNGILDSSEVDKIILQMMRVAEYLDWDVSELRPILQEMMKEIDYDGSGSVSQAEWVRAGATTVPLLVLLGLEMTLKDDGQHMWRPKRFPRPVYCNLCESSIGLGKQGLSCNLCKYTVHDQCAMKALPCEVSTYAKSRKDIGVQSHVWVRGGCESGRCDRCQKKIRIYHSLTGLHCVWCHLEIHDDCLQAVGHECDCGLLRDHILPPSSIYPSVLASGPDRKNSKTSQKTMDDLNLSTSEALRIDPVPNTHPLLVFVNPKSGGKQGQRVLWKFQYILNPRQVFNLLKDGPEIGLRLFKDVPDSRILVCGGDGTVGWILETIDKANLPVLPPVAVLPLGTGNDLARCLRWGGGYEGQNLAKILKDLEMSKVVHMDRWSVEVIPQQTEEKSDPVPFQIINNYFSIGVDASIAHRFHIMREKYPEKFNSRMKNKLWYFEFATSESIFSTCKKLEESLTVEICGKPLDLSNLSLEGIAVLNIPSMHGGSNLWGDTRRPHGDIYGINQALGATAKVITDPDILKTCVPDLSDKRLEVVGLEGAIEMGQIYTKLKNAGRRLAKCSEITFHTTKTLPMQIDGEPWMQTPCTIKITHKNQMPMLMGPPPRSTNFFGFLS
Sequence of Diacylglycerol kinase zeta (Q13574 as listed by the source): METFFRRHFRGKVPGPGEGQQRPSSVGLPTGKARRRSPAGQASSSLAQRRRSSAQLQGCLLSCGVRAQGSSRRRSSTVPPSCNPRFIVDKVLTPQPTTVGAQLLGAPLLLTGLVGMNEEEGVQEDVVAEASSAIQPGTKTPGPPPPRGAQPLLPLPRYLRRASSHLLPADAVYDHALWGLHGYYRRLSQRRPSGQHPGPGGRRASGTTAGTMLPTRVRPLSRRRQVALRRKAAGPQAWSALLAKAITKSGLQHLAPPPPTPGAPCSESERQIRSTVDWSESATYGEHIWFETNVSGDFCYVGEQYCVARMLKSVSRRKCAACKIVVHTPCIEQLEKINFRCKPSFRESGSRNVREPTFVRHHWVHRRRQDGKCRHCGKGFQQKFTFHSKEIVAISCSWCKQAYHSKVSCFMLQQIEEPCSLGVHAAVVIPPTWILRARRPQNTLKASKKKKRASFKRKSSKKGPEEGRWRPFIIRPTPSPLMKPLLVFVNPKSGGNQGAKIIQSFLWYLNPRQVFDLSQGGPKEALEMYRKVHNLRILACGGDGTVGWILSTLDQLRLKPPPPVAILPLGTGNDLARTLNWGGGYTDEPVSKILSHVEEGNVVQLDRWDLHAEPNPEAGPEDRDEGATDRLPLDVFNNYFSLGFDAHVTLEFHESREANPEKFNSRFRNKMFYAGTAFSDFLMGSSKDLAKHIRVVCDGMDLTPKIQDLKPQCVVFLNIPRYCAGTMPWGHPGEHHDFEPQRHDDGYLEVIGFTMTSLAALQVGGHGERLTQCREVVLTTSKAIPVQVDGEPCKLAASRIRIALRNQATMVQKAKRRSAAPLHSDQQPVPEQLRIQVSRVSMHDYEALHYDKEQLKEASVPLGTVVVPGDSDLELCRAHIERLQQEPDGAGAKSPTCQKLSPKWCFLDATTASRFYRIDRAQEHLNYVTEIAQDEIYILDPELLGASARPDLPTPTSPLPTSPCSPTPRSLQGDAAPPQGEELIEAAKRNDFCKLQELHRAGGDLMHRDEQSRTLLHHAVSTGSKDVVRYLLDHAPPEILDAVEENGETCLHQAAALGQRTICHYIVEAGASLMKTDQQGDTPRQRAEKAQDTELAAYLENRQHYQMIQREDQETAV

`CC(c1ccc2c(n1)OC(C)(C)CO2)N1C[C@H](C)N(c2cc(=O)n(C)c3cn(CC#N)nc23)C[C@H]1C` (stereo partly drawn) [2-(7-((2S,5R)-4-(1-(3,3-dimethyl-2,3-dihydro-[1,4]dioxino[2,3-b]pyridin-6-yl)ethyl)-2,5-dimethylpiperazin-1-yl)-4-methyl-5-oxo-4,5-dihydro-2H-pyrazolo[4,3-b]pyridin-2-yl)acetonitrile]: the IC50 in test [1] is 0.075 µM; in test [2], 61.5 µM. With `C[C@@H]1CC(c2cc(=O)n(C)c3cc(CC#N)nn23)CCN1[C@H](C)c1ccc2nccnc2c1` (stereo partly drawn) [US20250353858, Compound A33b], the IC50 in test [2] is greater than 10 µM.
